Results from PubChem BioAssay AID2060891 (Molecular Pharmacology Branch, DTP, NCI, 2025).

Tested on: K98450-129-R-PDC complex spheroid growth, percent test/control
Assay: Anticancer human tumor K98450-129-R-PDC patient-derived colon adenocarcinoma cell line growth inhibition [RAS]
Conditions: for IC50: curve of first compound; for viability, T/C: stronger effect = lower value
Summary of the method: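 Agents were tested in combination matrices in half-log decrements from a top concentration at or near clinical Cmax (10 microM if undetermined). Targets were multi-cell spheroids of tumour lines plus HUVEC and MSC stromal cells.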
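Further: spheroids exposed to agents for seven days before the viability readout.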
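Wherever viability, T/C is given: luminescence used as a proxy for viable cell amount.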

For `CC(=O)OC12COC1CC(O)C1(C)C(=O)C(O)C3=C(C)C(OC(=O)C(O)C(NC(=O)OC(C)(C)C)c4ccccc4)CC(O)(C(OC(=O)c4ccccc4)C21)C3(C)C` (configuration not stated) + CCn1c(-c2cccnc2C(C)OC)c2c3cc(ccc31)N1CCOC(CC(NC(=O)C(C(C)C)N(C)C(=O)C3(F)CCN(C(=O)C#CC(C)(C)N(C)C)CC3)C(=O)N3CCCC(N3)C(=O)OCC(C)(C)C2)C1, the IC50 (second compound 0.000949 µM) was 190 nM, the IC50 (second compound 0.003 µM) was 43.1 nM and the IC50 (second compound 0.00949 µM) was under 31.6 nM. For the same molecule, the IC50 (second compound 0.03 µM) was under 31.6 nM, the IC50 (second compound 0.0949 µM) was under 31.6 nM and the IC50 (second compound 0.3 µM) was under 31.6 nM. It also gave a viability, T/C (second compound 0.000949 µM, first compound 0.0316 µM) of 69.7%, a viability, T/C (second compound 0.000949 µM, first compound 0.1 µM) of 66.1% and a viability, T/C (second compound 0.000949 µM, first compound 0.316 µM) of 37.2%. The viability, T/C (second compound 0.000949 µM, first compound 1 µM) was 24.6%, the viability, T/C (second compound 0.000949 µM, first compound 3.16 µM) was 25.8% and the viability, T/C (second compound 0.000949 µM, first compound 10 µM) was 24.8%. It also gave a viability, T/C (second compound 0.003 µM, first compound 0.0316 µM) of 52.4%, a viability, T/C (second compound 0.003 µM, first compound 0.1 µM) of 43.6% and a viability, T/C (second compound 0.003 µM, first compound 0.316 µM) of 23.8%. The viability, T/C (second compound 0.003 µM, first compound 1 µM) was 19.7%, the viability, T/C (second compound 0.003 µM, first compound 3.16 µM) was 21.4% and the viability, T/C (second compound 0.003 µM, first compound 10 µM) was 20.1%. It also gave a viability, T/C (second compound 0.00949 µM, first compound 0.0316 µM) of 40.6%, a viability, T/C (second compound 0.00949 µM, first compound 0.1 µM) of 25.5% and a viability, T/C (second compound 0.00949 µM, first compound 0.316 µM) of 19.9%. The viability, T/C (second compound 0.00949 µM, first compound 1 µM) was 18.7%, the viability, T/C (second compound 0.00949 µM, first compound 3.16 µM) was 19.5% and the viability, T/C (second compound 0.00949 µM, first compound 10 µM) was 18.1%. It also gave a viability, T/C (second compound 0.03 µM, first compound 0.0316 µM) of 30.9%, a viability, T/C (second compound 0.03 µM, first compound 0.1 µM) of 28.2% and a viability, T/C (second compound 0.03 µM, first compound 0.316 µM) of 19.2%. For the same molecule, the viability, T/C (second compound 0.03 µM, first compound 1 µM) was 17.7%, the viability, T/C (second compound 0.03 µM, first compound 3.16 µM) was 19.7% and the viability, T/C (second compound 0.03 µM, first compound 10 µM) was 20.4%. For the same molecule, the viability, T/C (second compound 0.0949 µM, first compound 0.0316 µM) was 29.6%, the viability, T/C (second compound 0.0949 µM, first compound 0.1 µM) was 26.9% and the viability, T/C (second compound 0.0949 µM, first compound 0.316 µM) was 18.9%. It also gave a viability, T/C (second compound 0.0949 µM, first compound 1 µM) of 19%, a viability, T/C (second compound 0.0949 µM, first compound 3.16 µM) of 18.8% and a viability, T/C (second compound 0.0949 µM, first compound 10 µM) of 18.4%. For the same molecule, the viability, T/C (second compound 0.3 µM, first compound 0.0316 µM) was 29.5%, the viability, T/C (second compound 0.3 µM, first compound 0.1 µM) was 22.7% and the viability, T/C (second compound 0.3 µM, first compound 0.316 µM) was 19.1%. For the same molecule, the viability, T/C (second compound 0.3 µM, first compound 1 µM) was 16.3%, the viability, T/C (second compound 0.3 µM, first compound 3.16 µM) was 16.9% and the viability, T/C (second compound 0.3 µM, first compound 10 µM) was 18.6%.
